Assay results: patent US20250288584A1, “COMBINATIONS COMPRISING POSITIVE ALLOSTERIC MODULATORS OR ORTHOSTERIC AGONISTS OF METABOTROPIC GLUTAMATERGIC RECEPTOR SUBTYPE 2 AND THEIR USE” (JANSSEN PHARMACEUTICA NV, priority 2014, published 2025)
Where two headings read alike, the source gives them in different places.

Biological target: T1, human mGlu2 receptor (Homo sapiens, UniProt Q14416)
T1 construct: expressed in transfected cells; host or cells: CHO cells
Experiment: [35S]GTPγS binding assay, mGluR2 PAM
Type: biochemical
Conditions: for EC50 / GTPγS-hmGluR2 PAM pEC50: in presence of EC20 glutamate; for EC50: read-out: GTPγS-hmGluR2 PAM pEC50 (converted); for Emax / GTPγS-hmGluR2 PAM Emax: EC20 glutamate
Method: The [^35S]GTPγS binding assay is a functional membrane-based assay used to study G-protein coupled receptor (GPCR) function whereby incorporation of a non-hydrolysable form of GTP, [^35S]GTPγS (guanosine 5′-triphosphate, labelled with […] ^35S), is measured.
Cells were then collected by scraping in PBS and cell suspension was centrifuged (10 min at 4000 RPM in benchtop centrifuge). Supernatant was discarded and pellet gently resuspended in 50 mM Tris-HCl, pH 7.4 by mixing with a vortex and pipetting up and down. The suspension was centrifuged at 16,000 RPM (Sorvall RC-5C plus rotor SS-34) for 10 minutes and the supernatant discarded. The pellet was homogenized in 5 mM Tris-HCl, pH 7.4 using an ultra-turrax homogenizer and centrifuged again (18,000 RPM, 20 min, 4° C.). The final pellet was resuspended in 50 mM Tris-HCl, pH 7.4 and stored at-80° C. in appropriate aliquots before use. Protein concentration was determined by the Bradford method (Bio-Rad, USA) with bovine serum albumin as standard.
Measurement of mGluR2 positive allosteric modulatory activity of test compounds was performed as follows. Test compounds and glutamate were diluted in assay buffer containing 10 mM HEPES acid, 10 mM HEPES salt, pH 7.4, 100 mM NaCl, 3 mM MgCl2 and 10 μM GDP. Human mGlu2 receptor-containing membranes were thawed on ice and diluted in assay buffer supplemented with 14 μg/ml saponin. Membranes were pre-incubated with compound alone or together with a predefined (˜EC20) concentration of glutamate (PAM assay) for 30 min at 30° C. After addition of [^35S] GTPγS (f.c. 0.1 nM), assay mixtures were shaken briefly and further incubated to allow [^35S] GTPγS incorporation on activation (30 minutes, 30° C.). Final assay mixtures contained 7 μg of membrane protein in 10 mM HEPES acid, 10 mM HEPES salt, pH 7.4, 100 mM NaCl, 3 mM MgCl2, 10 µM GDP and 2 μg/ml saponin. Total reaction volume was 200 μl. Reactions were terminated by rapid filtration through Unifilter-96 GF/B plates (Perkin Elmer, Massachusetts, USA) using a 96-well filtermate universal harvester. Filters were washed 6 times with ice-cold 10 mM NaH2PO4/10 mM Na2HPO4, pH 7.4. Filters were then air-dried, and 40 μl of liquid scintillation cocktail (Microscint-O) was added to each well. Membrane-bound radioactivity was counted in a Microplate Scintillation and Luminescence Counter from Perkin Elmer.
The concentration-response curves of representative compounds of the present invention-obtained in the presence of EC20 of mGluR2 agonist glutamate to determine positive allosteric modulation (PAM)—were generated using the Lexis software interface (developed at J&J). Data were calculated as % of the control glutamate response, defined as the maximal response that is generated upon addition of glutamate alone. Sigmoid concentration-response curves plotting these percentages versus the log concentration of the test compound were analyzed using non-linear regression analysis. The concentration producing half-maximal effect is then calculated as EC50. The pEC50 values below were calculated as the −log EC50, when the EC50 is expressed in M. Emax is defined as relative maximal effect (i.e. maximal % effect relative to the control glutamate response).

[1] = maximal % effect relative to control glutamate response, read-out: GTPγS-hmGluR2 PAM Emax
[2] = read-out: GTPγS-hmGluR2 PAM Emax, maximal % effect relative to control glutamate response

T1 sequence (Q14416 19-872): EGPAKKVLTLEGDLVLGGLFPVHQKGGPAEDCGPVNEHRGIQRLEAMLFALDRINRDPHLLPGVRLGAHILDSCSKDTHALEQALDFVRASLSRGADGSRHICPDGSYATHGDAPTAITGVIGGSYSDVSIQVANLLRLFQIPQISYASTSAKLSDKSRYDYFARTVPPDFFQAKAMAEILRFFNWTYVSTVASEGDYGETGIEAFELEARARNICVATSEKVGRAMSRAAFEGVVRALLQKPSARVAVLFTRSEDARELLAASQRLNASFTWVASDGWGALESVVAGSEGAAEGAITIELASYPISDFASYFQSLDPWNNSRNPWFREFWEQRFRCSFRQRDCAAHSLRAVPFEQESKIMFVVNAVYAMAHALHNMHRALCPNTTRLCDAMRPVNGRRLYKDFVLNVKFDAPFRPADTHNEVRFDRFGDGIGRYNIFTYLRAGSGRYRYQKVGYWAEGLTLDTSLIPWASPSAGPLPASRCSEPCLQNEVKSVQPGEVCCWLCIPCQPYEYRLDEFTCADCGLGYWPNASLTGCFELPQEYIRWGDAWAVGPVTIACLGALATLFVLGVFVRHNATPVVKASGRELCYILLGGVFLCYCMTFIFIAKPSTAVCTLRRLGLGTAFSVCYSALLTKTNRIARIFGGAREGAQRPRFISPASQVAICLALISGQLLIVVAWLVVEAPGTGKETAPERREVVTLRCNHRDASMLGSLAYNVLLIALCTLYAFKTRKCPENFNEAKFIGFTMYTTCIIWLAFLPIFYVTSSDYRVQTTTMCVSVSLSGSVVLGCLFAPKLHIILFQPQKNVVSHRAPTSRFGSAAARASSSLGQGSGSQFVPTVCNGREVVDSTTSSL

| EC50 [nM] | Emax [1] [%] | Structure (SMILES) | also measured |
| --- | --- | --- | --- |
| – | 203 | CC(C)CCn1ccc(N2CCC(F)(c3ccccc3)CC2)c(Cl)c1=O [Co. No. 23-a] | GTPγS-hmGluR2 PAM pEC50: 6.58 |
| 126 | 278 | Fc1cnc(N2CCN(Cc3ccn4c(CC5CC5)nnc4c3C(F)(F)F)CC2)c(F)c1 [Co. No. 13] | – |
| 575 | 213 | CC(Oc1ccc(F)cc1F)c1ccn2c(CC3CCC3)nnc2c1C(F)(F)F (single isomer, unassigned) [Co. No. 18-b, 3-(Cyclobutylmethyl)-7-[(1*S)-1-(2,4-difluorophenoxy)ethyl]-8-(trifluoromethyl)[1,2,4]triazolo[4,3-a]pyridine] | – |
| 110 | 297 | CCCCn1ccc(N2CCC(c3ccccc3C(C)(C)O)CC2)c(Cl)c1=O [Co. No. 28-a] | – |
| – | 240 | CC(C)Cn1ccc(N2CCC(c3ccccc3)CC2)c(Cl)c1=O [Co. No. 19-a] | GTPγS-hmGluR2 PAM pEC50: 6.71 |
| – | 243 | O=c1c(Cl)c(N2CCC(OCCF)(c3ccccc3)CC2)ccn1CC1CC1 [Co. No. 20-a] | – |
| – | 227 | CCCc1nnc2c(C(F)(F)F)c(C(C)Oc3ccc(F)cc3F)ccn12 (centres unmarked) [Co. No. 30-b, 7-[1-(2,4-Difluorophenoxy)ethyl]-3-propyl-8-(trifluoromethyl)[1,2,4]triazolo[4,3-a]pyridine] | – |
| 107 | 317 | CCCCn1ccc(N2CCC(c3ccc(C(C)(C)O)cc3F)CC2)c(Cl)c1=O [Co. No. 29-a] | – |
| – | 223 | O=c1c(Cl)c(N2CCC(c3cccc(C(F)(F)F)c3)CC2)ccn1CC1CC1 [Co. No. 16-a] | GTPγS-hmGluR2 PAM pEC50: 7.12 |
| 288 | 261 | O=c1c(Cl)c(N2CCC(F)(c3ccccc3)CC2)ccn1CC1CC1 [Co. No. 17-a] | – |
| 1950 | – | CCCc1nnc2c(C(F)(F)F)c(C(C)Oc3ccc(F)cc3F)ccn12 (single isomer, unassigned) [Co. No. 32-b] | GTPγS-hmGluR2 PAM Emax (maximal % effect relative to control glutamate response, listed as 32-b): 116% |
| 219 | 347 | CCCCn1ccc(N2CCC3(CC2)OCc2ccccc23)c(Cl)c1=O [Co. No. 32-a] | – |

Continued, compound first:

| Structure (SMILES) | EC50 [nM] | Emax [1] [%] | also measured |
| --- | --- | --- | --- |
| COc1cnc(N2CCN(c3ccn4c(CC5CC5)nnc4c3C(F)(F)F)CC2)nc1 [Co. No. 9] | 126 | 462 | – |
| CC(Oc1ccc(F)cc1)c1ccn2c(CC3CC3)nnc2c1C(F)(F)F (centres unmarked) [Co. No. 1-b, 3-(Cyclopropylmethyl)-7-[1-(4-fluorophenoxy)ethyl]-8-(trifluoromethyl)[1,2,4]triazolo-[4,3-a]pyridine] | – | 296 | – |
| CCCCCn1ccc(N2CCC(c3ccccc3)CC2)c(Cl)c1=O [Co. No. 11-a] | – | 249 | GTPγS-hmGluR2 PAM pEC50: 7.11 |
| Fc1ccc(C2CCN(c3ccn4c(CC5CC5)nnc4c3Cl)CC2)c(F)c1 [Co. No. 10] | – | 357 | – |
| C[C@H](Oc1cccc(F)c1F)c1ccn2c(CC3CC3)nnc2c1C(F)(F)F [Co. No. 9-b, 3-(Cyclopropylmethyl)-7-[(1S)-1-(2,3-difluorophenoxy)ethyl]-8-(trifluoromethyl)[1,2,4]triazolo[4,3-a]pyridine] | – | 260 | – |
| CC(C)(O)c1ccc(C2CCN(c3ccn(CC4CC4)c(=O)c3C3CC3)CC2)cc1 [Co. No. 9-a] | 257 | 222 | – |
| CC(Oc1ccc(F)cc1)c1ccn2c(CC3CC3)nnc2c1C(F)(F)F (single isomer, unassigned) [Co. No. 3-b, 3-(Cyclopropylmethyl)-7-[(1*S)-1-(4-fluorophenoxy)ethyl]-8-(trifluoromethyl)[1,2,4]triazolo[4,3-a]pyridine] | – | – | GTPγS-hmGluR2 PAM Emax (maximal % effect relative to control glutamate response, listed as 3-b): 187% |
| CCCCn1ccc(N2CCC(F)(c3ccccc3)CC2)c(Cl)c1=O [Co. No. 7-a] | 229 | 291 | – |
| CC1(c2ccc(F)cc2)CCN(Cc2ccn3c(CC4CC4)nnc3c2C(F)(F)F)CC1 [Co. No. 3] | – | – | Emax [2]: 212% |
| C[C@H](Oc1c(F)cc(F)cc1F)c1ccn2c(CC3CC3)nnc2c1C(F)(F)F [Co. No. 15-b, 3-(Cyclopropylmethyl)-8-(trifluoromethyl)-7-[(1S)-1-(2,4,6-trifluorophenoxy)ethyl][1,2,4]triazolo[4,3-a]pyridine] | – | – | Emax [2]: 293% |
| O=c1c(Cl)c(N2CCC(c3ccccc3)CC2)ccn1CC1CC1 [Co. No. 1-a] | 166 | 314 | – |
| CC(Oc1ccc(F)cc1F)c1ccn2c(CC3CC3)nnc2c1C(F)(F)F (centres unmarked) [Co. No. 4-b, 3-(Cyclopropylmethyl)-7-[1-(2,4-difluorophenoxy)ethyl]-8-(trifluoromethyl)[1,2,4]triazolo-[4,3-a]pyridine] | – | 329 | – |
| C[C@H](Oc1cc(F)cc(F)c1)c1ccn2c(CC3CC3)nnc2c1C(F)(F)F [Co. No. 7-b, 3-(Cyclopropylmethyl)-7-[(1S)-1-(3,5-difluorophenoxy)ethyl]-8-(trifluoromethyl)[1,2,4]triazolo[4,3-a]pyridine] | – | 292 | – |
| O=c1c(Br)c(N2CCC(c3ccccc3)CC2)ccn1CC1CC1 [Co. No. 3-a] | – | 231 | – |
| C[C@H](Oc1ccc(F)c(F)c1)c1ccn2c(CC3CC3)nnc2c1C(F)(F)F [Co. No. 8-b, 3-(Cyclopropylmethyl)-7-[(1S)-1-(3,4-difluorophenoxy)ethyl]-8-(trifluoromethyl)[1,2,4]triazolo[4,3-a]pyridine] | – | 244 | – |
| CCOCc1nnc2c(C(F)(F)F)c(C(C)Oc3c(F)cc(F)cc3F)ccn12 (single isomer, unassigned) [Co. No. 23-b, 3-(Ethoxymethyl)-8-(trifluoromethyl)-7-[(1*S)-1-(2,4,6-trifluorophenoxy)ethyl][1,2,4]triazolo[4,3-a]pyridine] | – | – | GTPγS-hmGluR2 PAM Emax (maximal % effect relative to control glutamate response, listed as 23-b): 167% |
| FC(F)(F)c1c(N2CCN(c3ncccn3)CC2)ccn2c(CC3CC3)nnc12 [Co. No. 8] | 186 | 360 | – |
| CCOCc1nnc2c(C(F)(F)F)c(C(C)Oc3c(F)cc(F)cc3F)ccn12 (single isomer, unassigned) [Co. No. 22-b, 3-(Ethoxymethyl)-8-(trifluoromethyl)-7-[(1*R)-1-(2,4,6-trifluorophenoxy)ethyl][1,2,4]triazolo[4,3-a]pyridine] | – | – | GTPγS-hmGluR2 PAM Emax (maximal % effect relative to control glutamate response, listed as 22-b): 325% |
| CC1(C)OC2(CCN(c3ccn4c(CC5CC5)nnc4c3C(F)(F)F)CC2)c2ccc(F)cc21 [Co. No. 7] | – | 263 | – |
| C[C@H](Oc1cc(F)ccc1F)c1ccn2c(CC3CC3)nnc2c1C(F)(F)F [Co. No. 10-b, 3-(Cyclopropylmethyl)-7-[(1S)-1-(2,5-difluorophenoxy)ethyl]-8-(trifluoromethyl)[1,2,4]triazolo[4,3-a]pyridine] | – | 218 | – |
| Cc1ccc(O[C@@H](C)c2ccn3c(CC4CC4)nnc3c2C(F)(F)F)c(Cl)c1 [Co. No. 13-b, 7-[(1S)-1-(2-Chloro-4-methylphenoxy)ethyl]-3-(cyclopropylmethyl)-8-(trifluoromethyl)[1,2,4]triazolo[4,3-a]pyridine] | – | 280 | – |
| CC(Oc1ccc(F)cc1)c1ccn2c(CC3CC3)nnc2c1C(F)(F)F (single isomer, unassigned) [Co. No. 2-b, 3-(Cyclopropylmethyl)-7-[(1*R)-1-(4-fluorophenoxy)ethyl]-8-(trifluoromethyl)[1,2,4]triazolo[4,3-a]pyridine] | – | – | GTPγS-hmGluR2 PAM Emax (maximal % effect relative to control glutamate response, listed as 2-b): 228% |
| N#CC1(c2ccccc2)CCN(c2ccn(CC3CC3)c(=O)c2Cl)CC1 [Co. No. 6-a] | – | 255 | – |
| O=c1c(C(F)(F)F)c(N2CCC(c3ccccc3)CC2)ccn1CC1CC1 [Co. No. 4-a] | – | 269 | GTPγS-hmGluR2 PAM pEC50: 6.6 |
| O=c1c(Cl)c(N2CCC(c3ccccc3)CC2)ccn1CCC1CC1 [Co. No. 10-a] | – | 290 | GTPγS-hmGluR2 PAM pEC50: 6.88 |
| O=c1c(C2CC2)c(N2CCC(c3ccccc3)CC2)ccn1CC1CC1 [Co. No. 8-a] | – | 157 | – |
